Numbers after ± are expanded uncertainties.
F/C=C/C(F)(F)F [trans-1,3,3,3-tetrafluoropropene]
mass density (343.15 K, 9736 kPa, Liquid, Vibrating tube method): 1068.9 ± 1.6 kg/m3
mass density (343.15 K, 10753 kPa, Liquid, Vibrating tube method): 1076.1 ± 1.6 kg/m3
mass density (343.15 K, 11770 kPa, Liquid, Vibrating tube method): 1082.8 ± 1.6 kg/m3
mass density (343.15 K, 12788 kPa, Liquid, Vibrating tube method): 1089.2 ± 1.6 kg/m3
mass density (343.15 K, 15829 kPa, Liquid, Vibrating tube method): 1106.7 ± 1.6 kg/m3
mass density (343.15 K, 17849 kPa, Liquid, Vibrating tube method): 1117.1 ± 1.6 kg/m3
mass density (343.15 K, 18851 kPa, Liquid, Vibrating tube method): 1122 ± 1.6 kg/m3
mass density (343.15 K, 19867 kPa, Liquid, Vibrating tube method): 1126.8 ± 1.6 kg/m3
mass density (343.15 K, 20877 kPa, Liquid, Vibrating tube method): 1131.4 ± 1.6 kg/m3
mass density (343.15 K, 21883 kPa, Liquid, Vibrating tube method): 1135.8 ± 1.6 kg/m3
mass density (343.15 K, 22905 kPa, Liquid, Vibrating tube method): 1140.2 ± 1.6 kg/m3
mass density (343.15 K, 23913 kPa, Liquid, Vibrating tube method): 1144.3 ± 1.6 kg/m3
mass density (343.15 K, 24913 kPa, Liquid, Vibrating tube method): 1148.4 ± 1.6 kg/m3
mass density (343.15 K, 25929 kPa, Liquid, Vibrating tube method): 1152.4 ± 1.6 kg/m3
mass density (343.15 K, 26933 kPa, Liquid, Vibrating tube method): 1156.2 ± 1.6 kg/m3
mass density (343.15 K, 27938 kPa, Liquid, Vibrating tube method): 1160 ± 1.6 kg/m3
mass density (343.15 K, 28947 kPa, Liquid, Vibrating tube method): 1163.6 ± 1.6 kg/m3
mass density (343.15 K, 29953 kPa, Liquid, Vibrating tube method): 1167.2 ± 1.6 kg/m3
mass density (343.15 K, 30968 kPa, Liquid, Vibrating tube method): 1170.7 ± 1.7 kg/m3
mass density (343.15 K, 31987 kPa, Liquid, Vibrating tube method): 1174.2 ± 1.7 kg/m3
mass density (343.15 K, 32989 kPa, Liquid, Vibrating tube method): 1177.5 ± 1.7 kg/m3
mass density (343.15 K, 33994 kPa, Liquid, Vibrating tube method): 1180.8 ± 1.7 kg/m3
mass density (343.16 K, 13798 kPa, Liquid, Vibrating tube method): 1095.3 ± 1.6 kg/m3
mass density (343.16 K, 14817 kPa, Liquid, Vibrating tube method): 1101.1 ± 1.6 kg/m3
mass density (343.16 K, 16838 kPa, Liquid, Vibrating tube method): 1112 ± 1.6 kg/m3
mass density (352.95 K, 306.8 kPa, Gas, isochoric method): 12.346 ± 0.088 kg/m3
mass density (352.96 K, 306.9 kPa, Gas, isochoric method): 12.346 ± 0.088 kg/m3
mass density (352.99 K, 522.8 kPa, Gas, isochoric method): 21.739 ± 0.089 kg/m3
mass density (353 K, 191.9 kPa, Gas, isochoric method): 7.634 ± 0.082 kg/m3
mass density (353 K, 672 kPa, Gas, isochoric method): 28.571 ± 0.097 kg/m3
mass density (353 K, 672.1 kPa, Gas, isochoric method): 28.571 ± 0.097 kg/m3
mass density (353 K, 867.3 kPa, Gas, isochoric method): 38.462 ± 0.11 kg/m3
mass density (353.01 K, 84.1 kPa, Gas, isochoric method): 3.3 ± 0.081 kg/m3
mass density (353.01 K, 191.9 kPa, Gas, isochoric method): 7.634 ± 0.082 kg/m3
mass density (353.01 K, 458.4 kPa, Gas, isochoric method): 19.231 ± 0.089 kg/m3
mass density (353.01 K, 739.8 kPa, Gas, isochoric method): 32.258 ± 0.1 kg/m3
mass density (353.02 K, 84.1 kPa, Gas, isochoric method): 3.3 ± 0.081 kg/m3
mass density (353.02 K, 739.8 kPa, Gas, isochoric method): 32.258 ± 0.1 kg/m3
mass density (353.03 K, 950.8 kPa, Gas, isochoric method): 43.478 ± 0.12 kg/m3
mass density (353.14 K, 30961 kPa, Liquid, Vibrating tube method): 1149 ± 1.6 kg/m3
mass density (353.15 K, 2236 kPa, Liquid, Vibrating tube method): 936.2 ± 1.7 kg/m3
mass density (353.15 K, 9793 kPa, Liquid, Vibrating tube method): 1035.4 ± 1.6 kg/m3
mass density (353.15 K, 12814 kPa, Liquid, Vibrating tube method): 1058.8 ± 1.6 kg/m3
mass density (353.15 K, 15825 kPa, Liquid, Vibrating tube method): 1078.4 ± 1.6 kg/m3
mass density (353.15 K, 16834 kPa, Liquid, Vibrating tube method): 1084.4 ± 1.6 kg/m3
mass density (353.15 K, 18850 kPa, Liquid, Vibrating tube method): 1095.7 ± 1.6 kg/m3
mass density (353.15 K, 19865 kPa, Liquid, Vibrating tube method): 1101 ± 1.6 kg/m3
mass density (353.15 K, 21883 kPa, Liquid, Vibrating tube method): 1111 ± 1.6 kg/m3
mass density (353.15 K, 22889 kPa, Liquid, Vibrating tube method): 1115.7 ± 1.6 kg/m3
mass density (353.15 K, 24907 kPa, Liquid, Vibrating tube method): 1124.7 ± 1.6 kg/m3
mass density (353.15 K, 25928 kPa, Liquid, Vibrating tube method): 1129.2 ± 1.6 kg/m3
mass density (353.15 K, 26934 kPa, Liquid, Vibrating tube method): 1133.3 ± 1.6 kg/m3
mass density (353.15 K, 27950 kPa, Liquid, Vibrating tube method): 1137.5 ± 1.6 kg/m3
mass density (353.15 K, 28953 kPa, Liquid, Vibrating tube method): 1141.4 ± 1.6 kg/m3
mass density (353.15 K, 29957 kPa, Liquid, Vibrating tube method): 1145.2 ± 1.6 kg/m3
mass density (353.15 K, 31977 kPa, Liquid, Vibrating tube method): 1152.7 ± 1.6 kg/m3
mass density (353.15 K, 32983 kPa, Liquid, Vibrating tube method): 1156.3 ± 1.6 kg/m3
mass density (353.15 K, 33998 kPa, Liquid, Vibrating tube method): 1159.9 ± 1.6 kg/m3
mass density (353.16 K, 2681 kPa, Liquid, Vibrating tube method): 945.9 ± 1.7 kg/m3
mass density (353.16 K, 3704 kPa, Liquid, Vibrating tube method): 964.9 ± 1.7 kg/m3
mass density (353.16 K, 4723 kPa, Liquid, Vibrating tube method): 980.5 ± 1.7 kg/m3
mass density (353.16 K, 5740 kPa, Liquid, Vibrating tube method): 994 ± 1.7 kg/m3
mass density (353.16 K, 6749 kPa, Liquid, Vibrating tube method): 1005.9 ± 1.7 kg/m3
mass density (353.16 K, 7775 kPa, Liquid, Vibrating tube method): 1016.7 ± 1.6 kg/m3
mass density (353.16 K, 8789 kPa, Liquid, Vibrating tube method): 1026.5 ± 1.6 kg/m3
mass density (353.16 K, 10794 kPa, Liquid, Vibrating tube method): 1043.6 ± 1.6 kg/m3
mass density (353.16 K, 11799 kPa, Liquid, Vibrating tube method): 1051.4 ± 1.6 kg/m3
mass density (353.16 K, 13815 kPa, Liquid, Vibrating tube method): 1065.7 ± 1.6 kg/m3
mass density (353.16 K, 14816 kPa, Liquid, Vibrating tube method): 1072.2 ± 1.6 kg/m3
mass density (353.16 K, 17837 kPa, Liquid, Vibrating tube method): 1090.2 ± 1.6 kg/m3
mass density (353.16 K, 20878 kPa, Liquid, Vibrating tube method): 1106.1 ± 1.6 kg/m3
mass density (353.16 K, 23896 kPa, Liquid, Vibrating tube method): 1120.3 ± 1.6 kg/m3
mass density (362.94 K, 86.6 kPa, Gas, isochoric method): 3.3 ± 0.079 kg/m3
mass density (362.94 K, 316.2 kPa, Gas, isochoric method): 12.346 ± 0.082 kg/m3
mass density (362.94 K, 316.3 kPa, Gas, isochoric method): 12.346 ± 0.082 kg/m3
mass density (362.95 K, 473.2 kPa, Gas, isochoric method): 18.868 ± 0.085 kg/m3
mass density (362.96 K, 197.6 kPa, Gas, isochoric method): 7.634 ± 0.08 kg/m3
mass density (362.96 K, 473.2 kPa, Gas, isochoric method): 18.868 ± 0.085 kg/m3
mass density (362.96 K, 540 kPa, Gas, isochoric method): 21.739 ± 0.088 kg/m3
mass density (362.96 K, 695.3 kPa, Gas, isochoric method): 28.571 ± 0.093 kg/m3
mass density (362.97 K, 899.7 kPa, Gas, isochoric method): 38.462 ± 0.1 kg/m3
mass density (362.97 K, 987.6 kPa, Gas, isochoric method): 43.478 ± 0.12 kg/m3
mass density (362.98 K, 766.3 kPa, Gas, isochoric method): 32.258 ± 0.097 kg/m3
mass density (362.98 K, 987.6 kPa, Gas, isochoric method): 43.478 ± 0.12 kg/m3
mass density (372.89 K, 557 kPa, Gas, isochoric method): 21.739 ± 0.085 kg/m3
mass density (372.9 K, 89.1 kPa, Gas, isochoric method): 3.3 ± 0.077 kg/m3
mass density (372.9 K, 325.6 kPa, Gas, isochoric method): 12.346 ± 0.08 kg/m3
mass density (372.9 K, 557 kPa, Gas, isochoric method): 21.739 ± 0.085 kg/m3
mass density (372.91 K, 203.3 kPa, Gas, isochoric method): 7.634 ± 0.077 kg/m3
mass density (372.92 K, 792.3 kPa, Gas, isochoric method): 32.258 ± 0.094 kg/m3
mass density (372.93 K, 488 kPa, Gas, isochoric method): 18.868 ± 0.082 kg/m3
mass density (372.95 K, 1023.8 kPa, Gas, isochoric method): 43.478 ± 0.11 kg/m3
mass density (372.95 K, 1023.9 kPa, Gas, isochoric method): 43.478 ± 0.11 kg/m3
mass density (372.96 K, 931.7 kPa, Gas, isochoric method): 38.462 ± 0.098 kg/m3
mass density (372.97 K, 718.5 kPa, Gas, isochoric method): 28.571 ± 0.09 kg/m3
mass density (372.97 K, 718.6 kPa, Gas, isochoric method): 28.571 ± 0.09 kg/m3
